# Test results as given in patent US20040087539A1, “Method of treating conditions related to platelet activity” (priority 2003, published 2004).
# Experiments:
# [1] = system: 123 cells (CHO cells expressing recombinant human GPIb-IX and integrin αIIbβ3); experiment: vWF-induced GPIb-IX-mediated activation of integrin αIIbβ3 (Oregon green-labeled fibrinogen binding, flow cytometry); format: cell-based, Chinese Hamster; details: PKG-transfected 123 cells, 12 μg/ml vWF, 1 mg/ml ristocetin, FIGS. 1B, 1C
# Procedure: Human PKG Iβ cDNA was cloned by RT-PCR, using human platelet mRNA as templates. Sequence of the human PKG Iβ cDNA fragment matches the published sequence. Cloning of human PKG Iα cDNA was described previously. PKG Iα or Iβ in pCDNA3.1/Zeo+vector was transfected into 123 cells (CHO cells expressing recombinant human CPIb-IX and integrin αIIbβ3 using Lipofectamine plus (BRL). Expression of PKG was assessed by Western blotting with an antihuman PKG I antibody (Calbiochem). The kinase activity of the expressed enzymes was measured in cell homogenates using BPDEtide (Calbiochem) as substrate as detailed previously. vWF-induced GPIb-IX-mediated activation of integrin αIIbβ3 was examined by flow cytometry analysis of Oregon green-labeled fibrinogen binding to integrln αIIbβ3 as described previously. Briefly, cells were detached from tissue culture plate using 0.5 mM EDTA, washed at 4° C. and resuspended in modified Tyrode's solution. Cells then were incubated with Oregon green-labeled fibrinogen (20 μg/ml) in the presence of ristocetin and vWF at 22° C. for 30 minutes, and analyzed by FACScalibur flow cytometer. Nonspecific binding of fibrinogen was estimated by measuring fibrinogon binding in the presence of a specific integrin inhibitor RGDS (1 mM) (see Refs. 13 and 43-45).
# In FIG. 1A, CHO cells expressing GPLb-JX and integrin αIIbβ3 (123 cells) were transfected with cDNA encoding PKGIα or vector. Expression of PKG Ia in 123 cells was detected by Western blotting with an anti-human PKG I antibody (Insert), and recombinant PKG activity was determined in the absence or presence of 20 μM 8-bromo-cGMP as previously described. Results are expressed as mean +SD (n=3). For FIGS. 1B and 1C, reconstitution of GPIb-IX-mediated integrin activation in CHO cells was published (see Ref. 13). […] Cells were analyzed by flow cytometry. Quantitative results from three experiments are expressed as fibrinogen binding indices (total bound fluorescence (Fg)/nonspecifically bound fluorescence (Fg+RGDS)), and shown in FIG. 1B (mean ±SD).
# [2] = system: CHO cells expressing human platelet receptors; experiment: Cell adhesion to immobilized vWF under flow; format: cell-based, Chinese Hamster; details: FIG. 2C; sildenafil 5 μM, RGDS 4 mM; 8-bromo-cGMP not shown
# Procedure: CHO cells expressing human platelet receptors were resuspended in modified Tyrode's buffer, pH 7.4, containing 1 mg/mi of bovine serum albumin (BSA) (see Ref. 46), and final cell count was 5×10^5/ml. […] Purified human vWF (10 μg/ml in 0.1 M NaHCO3, pH 8.3) was added to glass microcapillary tubes (inner diameter of 1.33 mm and a length of 7.2 cm), and incubated at 4° C. for 20 h. The vWF-coated microcapillary tubes then were incubated with 5% BSA. After washing, the cell suspension was aspirated through the tube by a syringe pump (Harvard Apparatus Inc.) at desired shear rates for 1.2 minutes and washed with modified Tyrode's buffer for additional 10 minutes at the same shear rates to remove transiently adherent cells. The experiments were continuously recorded on videotape using a video cassette recorder (model 9500, Sony). The number of stably adherent cell on immobilized vWF was counted on images obtained at 20 randomly selected positions in the vWF-coated tubes.
# In FIGS. 2A and B, vWF-coated capillary tubes were perfused with equivalent numbers (5×10^5/ml) of CHO cells expressing recombinant GPLb-JX alone (1b9), integrin αIIbβ3 alone (2b3a), both GPIb-IX and integrin αIIbβ3 (123) or expressing GPJb-JX, integrin α^IIbβ3 and PKG Ia (123PKG) at a shear rates of 800 s^−1 (A) or 1500 s^−1 (B) for 1.2 minutes, and then perfused with the modified Tyrodes buffer for 10 minutes at the same shear rates to wash out transient adherent cells. The expenments were recorded in real time. Cells stably adherent to vWF-coated capillary tubes at 20 randomly selected locations were counted.
# In FIG. 2C, vector-transfected 123 cells (123) or 123PKG cells also was perfused into vWF-coated glass capillary tubes as described in FIG. 2A in the absence or presence (+RGDS) of an integrin inhibitor RGDS peptide (4 mM) and in the absence (Control) or presence of cGMP-enhancing drug, sildenafil (5 μM). […] The experiments were repeated at least three times.
smiles,measurement,setting,value
Nc1nc2c(nc(Br)n2[C@@H]2O[C@@H]3COP(=O)(O)O[C@H]3[C@H]2O)c(=O)[nH]1 [8-bromo-cGMP],vWF-induced fibrinogen binding to integrin,[1],further increased
same,vWF-induced fibrinogen binding to integrin,[1]; row,dramatically increased
same,stable adhesion of PKG-expressing 123 cells (123PKG) to vWF under flow,[2],enhanced
